The values below come from patent publication US20100048731A1, “Hydroxylated Long-Chain Resveratrol Derivatives Useful as Neurotrophic Agents” (Centre National de la Recherche Scientifique(CNRS), priority 2006, published 2010).

Read-outs that look alike come from different tables or passages of the source.

In assay [1] the test system is microglial cell cultures treated with LPS. In words: TNF-α release (ELISA) in LPS-activated microglial cell cultures. Conditions: read-out: decrease in TNF-α production compared to control values. In kind it is cell-based. The procedure: (§1) The experiments carried out thus relate to the capacity of RFA molecules (MRFA and DMRFA) to inhibit, in activated microglia, the release of nitrites and TNF-α.
The expression of TNF-α represents a microglial activation parameter often analyzed in the literature. […] A 24-hour activation by LPS leads to a strong increase in expression, detectable by ELISA.
In the experiments performed, TNF-α concentrations were measured after 24 hours of activation in microglial cell cultures treated with 0.01 μg/ml of LPS in the presence of MRFA-10, MRFA-12, MRFA-14, MRFA-16, MRFA-18, DMRFA-10, DMRFA-12, DMRFA-14, DMRFA-16, DMRFA-18, M-resveratrol, DM-resveratrol and resveratrol at concentrations of 5×10^−6 M, 10^−6 M and 10^−7 M.

The nature of assay [2]: DPPH test (antioxidant capacity). It is filed as physicochemical. The conditions noted are these: after 3 hours of incubation (time stated for the hybrid molecules); read-out: IC50 (concentration at which 50% of the radicals are reduced), DPPH test. The procedure: The DPPH [(2,2′-di(4-tert-octylphenyl)1-picrylhydrazyl] test was used to determine the antioxidant capacity of our compounds [9]. DPPH is a stabilized radical that absorbs at 517 nm (violet color). When it is placed in the presence of an antioxidant molecule, the latter will react with the radical. Thus, a decrease in absorbance can be observed. Antioxidant capacity thus results in a decrease in absorbance at 517 nm.
a) Implementation of the DPPH Test
On a 96-well ELISA plate, add: • 100 μl of the various solutions at the following concentrations: 10 mM, 5 mM, 2.5 mM, 1 mM, 0.5 mM, 0.1 mM, 0.01 mM and 0.001 mM; • 100 μl of a 400 μM solution of DPPH in ethanol.
After incubating for 45 minutes, 2 hours and 3 hours, the result is given by measuring optical density at […] using a spectrophotometer.
The result is expressed as IC50, which is the concentration at which 50% of the radicals are reduced by the antioxidant molecule.
The inventors tested resveratrol, as a positive control, as well as RFA-10, RFA-12 and RFA-16.

Assay [3] can be described thus: ABTS test (antioxidant capacity, hydroxyl radicals from the Fenton reaction). It is filed as physicochemical. The conditions noted are these: after 2 hours of incubation. An excerpt: In light of the results obtained with the DPPH test, the use of the ABTS ([2,2′-azino-bis-(3-ethylbenzthiazoline-6-sulfonic acid)]) test was considered, [11], [12]. The ABTS test is more sensitive insofar as it uses less encumbered hydroxyl radicals.
The ABTS molecule reacts with the hydroxyl (OH) radicals generated in the medium by the Fenton reaction to form a cation radical, ABTS^+ (green color), which is absorbent at 405 nm. Thus, when it is placed in the presence of an antioxidant molecule, one capable of reducing hydroxyl radicals, a reduction in absorbance at 405 nm can be observed.
On a 96-well ELISA plate, add: • 180 μl of a 50/50 water/ethanol mixture; • 30 μl of a 1 mM aqueous ABTS solution; • 30 μl of a 1 mM aqueous FeSO4 solution; • 30 μl of the product to be tested at the following concentrations: 10 mM, 5 mM, 2.5 mM, 1 mM, 0.5 mM, 0.1 mM, 0.01 mM and 0.001 mM; • 30 μl of a 100 mM aqueous H2O2 solution.
After incubating for 45 minutes, 1 hour and 2 hours, the result is given by measuring optical density at 405 nm using a spectrophotometer.
In order to maximally reduce solubility problems, RFA-10 was tested. Resveratrol was again used as a positive control.

Assay [4] has as its system microglial cell cultures treated with LPS. In words: Nitrite release (Griess method) in LPS-activated microglial cell cultures. In kind it is cell-based. The conditions noted are these: LPS 0.01 μg/ml; for decrease in nitrite production compared to the control values: three independent experiments, concentration not stated (5×10^-6, 10^-6 and 10^-7 M tested).
Source text: as §1
The activity of NO-synthase type II (NOS II) represents a microglial activity parameter often analyzed in the literature. This enzyme is responsible for the synthesis of nitric oxide radicals under conditions of inflammatory activation. Microglia at rest only express levels at the immunoblotting detection limit. Activation of 24 to 48 hours leads to a strong increase in this expression. The product of this enzyme, NO, quickly breaks down in culture to form nitrites.
In the experiments performed, NO2^− concentrations were measured after 24 hours and 48 hours of activation in microglial cell cultures treated with 0.01 μg/ml of LPS, in the presence of products RFA-12, MRFA-10, MRFA-12, MRFA-14, MRFA-16, MRFA-18, DMRFA-10, DMRFA-12, DMRFA-14, DMRFA-16, DMRFA-18, M-resveratrol, DM-resveratrol and resveratrol at concentrations of 5×10^−6 M, 10^−6 M and 10^−7 M.
On the technique in general: Griess reagent forms a coloured azo dye with nitrite.

Assay [5] concerns neural stem cells. In words: Differentiation of neural stem cells (neurospheres) into neurons, by immunocytochemistry. In kind it is cell-based, mouse. The conditions noted are these: for increase in the neuron population compared to the control fixed at 100%: 3 days of differentiation. The procedure: (§2) Neurospheres are obtained from mouse embryo telencephalon cells cultivated in a defined medium containing 20 ng/ml EGF. After dissociation, the spheres proliferate for 3 days in the presence of EGF (20 ng/ml) during the so-called proliferation phase.
The spheres are then collected and deposited on an poly-ornithine support in a defined medium in the presence of 2 ng/ml EGF. Under these conditions, the spheres adhere to the support and differentiate. The compounds to be tested, RFA-12 and its analogues, dissolved beforehand in ethanol, are added immediately after the deposit of the neurospheres at various concentrations ranging from 10^−5 M to 10^−9 M. The control cultures are treated with a negative control (ethanol) and a positive control (retinoic acid).
To screen our compounds we performed a double labeling, namely for neurons and for astrocytes.
For the detection of astrocytes, a secondary antibody coupled to a fluorochrome derived from rhodamine, Alexa488 (green), was used.
In order to be able to quantify the results, the nuclei are marked by an intercalating agent, TO-PRO (blue). The cultures are then observed under a confocal microscope.

For assay [6], the system named is neural stem cells. In words: Neural stem cell proliferation. It is filed as cell-based, mouse. The conditions noted are these: 10^-6 M; cultured for 5 days. The procedure: as §2
1. RFA-12 induces the differentiation of neural stem cells into neurons. […] However, if the neurospheres are treated with RFA-12 at a concentration of 10^−6 M to 10^−8 M, an increase in the number of neurons compared to the control (untreated cells) is observed. At concentrations of 10^−6 M, 10^−7 M and 10^−8 M we can observe a 120%, 90% and 80% increase, respectively, in the neuron population compared to the control fixed at 100%. […] In order to see whether RFA and its analogues also act on neural stem cell proliferation, these cells are dissociated and then cultured in the presence of RFA (10^−6 M and 10^−8 M) for 5 days, and then the number of living cells and their size and morphology are recorded.

The mark [7] stands for this setting: LPS 0.01 μg/ml, 24 hours of activation, compound at 5×10^-6 M.

Consider `COc1ccc(/C=C/c2cc(OC)c(CCCCCCCCCCCCO)c(OC)c2)cc1OC` [DMRFA-12], for which the inhibition at 5 µM in assay [1] (setting [7]) stood at 40%.

With `COc1ccc(/C=C/c2cc(OC)c(CCCCCCCCCCCCO)c(OC)c2)cc1` [MRFA-12], in assay [1] (setting [7]), the inhibition at 5 µM fell in the range of 20 to 40%.

Consider `COc1ccc(/C=C/c2cc(OC)cc(OC)c2)cc1` [M-resveratrol, reference compound], for which the inhibition at 5 µM in assay [1] (24 h) amounted to 20%.

Consider `Oc1ccc(/C=C/c2cc(O)cc(O)c2)cc1` [resveratrol], for which the results for the IC50 in assay [2] and in assay [3] were 10 µM and 30 µM, respectively. Besides, in assay [4], the “decrease in nitrite production compared to the control values” (“decrease in nitrite production” below) was 20%. The inhibition at 5 µM in assay [1] (setting [7]) stood at 30%.

With `COc1ccc(/C=C/c2cc(OC)c(CCCCCCCCCCCCCCO)c(OC)c2)cc1` [MRFA-14, (E)-14-(4-(4-methoxystyryl)-2,6-dimethoxyphenyl)tetradecan-1-ol], the inhibition at 5 µM in assay [1] (setting [7]) fell in the range of 20 to 40%.

As for `OCCCCCCCCCCCCc1c(O)cc(/C=C/c2ccc(O)cc2)cc1O` [RFA-12], the “decrease in nitrite levels” value in assay [4] (compound at 5×10^-6 M) came to 50%. In addition, in assay [1] (setting [7]), the inhibition at 5 µM came out at 40%. Also, the “differentiation of neural stem cells, result in words” value is “does not induce differentiation due to toxicity” in assay [5] (10^-5 M) and “only weak activity” in assay [5] (10^-9 M). Further, the “increase in the neuron population compared to the control fixed at 100%” value in assay [5] (10^-6 M) came to 120%; in assay [5] (10^-7 M), 90%; in assay [5] (10^-8 M) it was 80%. In assay [6], the “effect on neural stem cell proliferation” value was “inhibits the proliferation of neural stem cells”.

As to `COc1ccc(/C=C/c2cc(OC)c(CCCCCCCCCCO)c(OC)c2)cc1` [MRFA-10], the “decrease in nitrite production” value in assay [4] was determined as 20%. In addition, in assay [1] (setting [7]), the inhibition at 5 µM fell in the range of 20 to 40%.

Consider `COc1ccc(/C=C/c2cc(OC)c(CCCCCCCCCCO)c(OC)c2)cc1OC` [DMRFA-10], for which the “decrease in nitrite production” value in assay [4] is 20%. In addition, the inhibition at 5 µM in assay [1] (setting [7]) worked out at 40%.
